BigSolDB 2.1

CO[C@@]1(NC(=O)CSCC#N)C(=O)N2C(C(=O)[O-])=C(CSc3nnnn3C)CS[C@@H]21.[Na+]
solubility (mole fraction)
Conditions	in cyclohexane	in ethanol	in ethyl acetate	in isopropanol	in n-butanol	in n-butyl acetate	in n-hexane	in n-pentanol	in n-propanol
278.15 K	1.31e-06	0.000471	5.31e-05	6.74e-05	4.93e-05	3.86e-05	1.6e-06	3.1e-05	6.12e-05
283.15 K	1.75e-06	0.000508	6.03e-05	7.58e-05	5.69e-05	4.39e-05	2.1e-06	3.94e-05	7.02e-05
288.15 K	2.1e-06	0.000542	6.94e-05	8.93e-05	6.42e-05	5.19e-05	2.59e-06	4.82e-05	8.12e-05
293.15 K	2.5e-06	0.000599	8.61e-05	0.000117	8.26e-05	6.35e-05	2.98e-06	5.84e-05	0.000105
298.15 K	3.1e-06	0.000685	0.000105	0.00014	9.89e-05	7.49e-05	3.5e-06	6.75e-05	0.000125
303.15 K	3.6e-06	0.000818	0.000137	0.00017	0.000124	8.96e-05	4.1e-06	8e-05	0.000153
308.15 K	4.62e-06	0.00105	0.000168	0.00021	0.000152	0.000109	4.92e-06	9.75e-05	0.000191
313.15 K	5.69e-06	0.00128	0.000221	0.000286	0.000196	0.000124	6e-06	0.000113	0.000244
